Here are results for eight compounds from patent US6500824B1, “Kappa (OP2) opioid receptor antagonists” (Regents of the University of Minnesota, priority 1998, dated 2002).

Read-outs that look alike come from different tables or passages of the source.

Experiment [1] concerns the target T1, kappa (OP2) opioid receptor (Cavia porcellus, UniProt P41144).
T1 construct: a strip of longitudinal muscle with the myenteric plexus attached was prepared; from tissue; host or cells: guinea pig ileal longitudinal muscle with myenteric plexus
Kind of experiment: Guinea pig ileal longitudinal muscle (GPI) smooth muscle assay, antagonism of ethylketazocine (EKC). The format is cell-based. Here is the method: (§1) 1. Guinea Pig Ileal Longitudinal Muscle (GPI). Ilea from guinea pigs were taken approximately 10 cm from the ileocecal junction, and a strip of longitudinal muscle with the myenteric plexus attached was prepared by the method of H. B. Rang et al., Brit. J Pharmacol., 1964, 22, 356. A 1 cm portion of this strip was then mounted between two platinum electrodes placed in a 10 ml organ bath and connected to an isometric transducer, contractions were recorded on a polygraph. Contractions of the ileal strip were initiated by supramaximal rectangular pulses in all preparations (80 V of 0.5 ms duration at a frequency of 0.1 Hz). Krebs bicarbonate solution containing […] chloropheniramine maleate was the bathing solution and was continuously bubbled with 95% O2 and 5% CO2. The organ bath was maintained at 36-37° C. The longitudinal strip was allowed to equilibrate with continuous stimulation for a minimum of 90 min. Cumulative concentration-response curves were determined after drugs were added to the bath in preselected amounts and washed out with buffer after noting their maximum effects.
(§2) The standard agonists employed were [D-Ala^2, D-Leu^5]enkephalin (DADLE) (D), morphine (M) and ethylketazocine (EKC); these are selective for delta (D), mu (M) and kappa (EKC) opioid receptors, respectively. Concentration-response curves were obtained in the absence (control) and the presence of the antagonist and were determined as IC50 values. The IC50 ratio represents the IC50 in the presence of the antagonist divided by the control IC50 value in the same tissue. A concentration independent value of antagonist potency is calculated from the equation, Ke=[antagonist]/(IC50 ratio-1).

Another experiment has as its system μ(OP3) opioid receptor. Kind of experiment: Guinea pig ileal longitudinal muscle (GPI) smooth muscle assay, antagonism of morphine. The format is cell-based. To be noted: agonist morphine, antagonist concentration 100 nM. Here is the method:
as §1, §2

For the next experiment, the target named is T2, wt κ receptor (Rattus norvegicus, UniProt P34975).
T2 construct: expressed in transfected cells; host or cells: COS-7 (per the earlier reading)
Kind of experiment: Competition binding with [3H]diprenorphine, whole cell binding, COS-7 cells, wt κ. The source says: (§3) The effects of mutational exchange of Glu297 in the κ receptor and Lys303 in the μ receptor on the binding affinity of representative compounds of the invention were examined using techniques known in the art.

The target in a further experiment is T3, δ(OP1) opioid receptor (Mus musculus, UniProt P32300).
T3 construct: Both vasa deferentia were dissected out of mice and mounted singly; from tissue; host or cells: mouse vas deferens
Nature of the experiment: Mouse vas deferens (MVD) smooth muscle assay, antagonism of DADLE. The class given is cell-based. Here is the method: 2. Mouse Vas Deferens (MvD). This assay was performed according to the description by G. Henderson et al., Brit. J. Pharmacol., 1972, 46,764. Both vasa deferentia were dissected out of mice and mounted singly through two platinum electrodes in a 10 ml organ bath. The bath contained Krebs bicarbonate solution that was continuously bubbled with 95% O2 and 5% CO2. The organ bath was maintained at 37° C. The tissue was attached to an isometric transducer and stimulated transmurally with rectangular pulses ([…], 1 ms duration, supramaximal voltage). Drugs were added cumulatively to the bath in preselected amounts and washed out after noting their maximum effects.
as §2

The next experiment concerns the target T4, κ[E297K] receptor (Rattus norvegicus, UniProt P34975, E297K).
T4 construct: expressed in transfected cells; host or cells: COS-7 (per the earlier reading)
Kind of experiment: Competition binding with [3H]diprenorphine, whole cell binding, COS-7 cells, κ[E297K].
Excerpt: as §3

The next experiment addresses T5, μ[K303E] receptor (Rattus norvegicus, UniProt P33535, K303E).
T5 construct: expressed in transfected cells; host or cells: COS-7 (per the earlier reading)
Kind of experiment: Competition binding with [3H]diprenorphine, whole cell binding, COS-7 cells, μ[K303E].
Excerpt: as §3

The subject of experiment [2] is wt μ receptor. Nature of the experiment: Competition binding with [3H]diprenorphine, whole cell binding, COS-7 cells, wt μ. Also noted: species or system rat. Particulars: wt μ.
Excerpt: as §3

Experiment [3] addresses T6, wt μ receptor (Rattus norvegicus, UniProt P33535).
T6 construct: expressed in transfected cells; host or cells: COS-7 (per the earlier reading)
The experiment is described as above.
Excerpt: as §3

For a further experiment, the target named is T7, kappa opioid receptor (Cavia porcellus, UniProt P41144).
T7 construct: a strip of longitudinal muscle with the myenteric plexus attached was prepared; from tissue; host or cells: guinea pig ileal longitudinal muscle with myenteric plexus
Kind of experiment: GPI preparation, kappa antagonist potency against U-50488H. The format is cell-based, guinea pig. Particulars: GPI; agonist U-50488H; read-out: Ke. Here is the method: as §1

Where [4] appears, read: GPI, agonist EKC, antagonist concentration 100 nM, read-out: Antagonist Potency Ke κ(OP2) EKC.

Regarding `CCNC(=N)Nc1ccc2[nH]c3c(c2c1)C[C@@]1(O)[C@H]2Cc4ccc(O)c5c4[C@@]1(CCN2CC1CC1)[C@H]3O5.O.O.O=C(O)C(F)(F)F.O=C(O)C(F)(F)F` [Compound 16, 5′-N-Ethylguanidinyl-17-cyclopropylmethyl-6,7-didehydro-4,5-α-epoxy-3,14-dihydroxyindolo[2′,3′:6,7]morphinan Ditrifluoroacetate Dihydrate], in [1] (setting [4]), the Kb was 0.157 nM. Besides, the “Antagonist Potency Ke μ(OP3) Morphine” value with μ(OP3) opioid receptor is reported as 19.00 nM.

For the compound `CCCCNC(=N)Nc1ccc2[nH]c3c(c2c1)C[C@@]1(O)[C@H]2Cc4ccc(O)c5c4[C@@]1(CCN2CC1CC1)[C@H]3O5.O.O.O=C(O)C(F)(F)F.O=C(O)C(F)(F)F` [Compound 17, 5′-N-Butylguanidinyl-17-cyclopropylmethyl-6,7-didehydro4,5α-epoxy-3,14-dihydroxyindolo[2′,3′:6,7]morphinan Ditrifluoroacetate Dihydrate], the Kb in [1] (setting [4]) is reported as 0.09 nM.

Regarding `CNC(=N)Nc1ccc2[nH]c3c(c2c1)C[C@@]1(O)[C@H]2Cc4ccc(O)c5c4[C@@]1(CCN2CC1CC1)[C@H]3O5.O.O.O=C(O)C(F)(F)F.O=C(O)C(F)(F)F` [Compound 18, 5′-Methylguanidinyl-17-cyclopropylmethyl-6,7-didehydro4,5α-epoxy-3,14-dihydroxyindolo[2′,3′:6,7]morphinan Ditrifluoroacetate Dihydrate], the Kb in experiment [1] (setting [4]) is 0.59 nM. In the experiment with μ(OP3) opioid receptor, the “Antagonist Potency Ke μ(OP3) Morphine” value came out at 10.8 nM.

Usually Ki stands for the equilibrium dissociation constant of an inhibitor or competing ligand from its target. Take `N#C/N=C(\N)Nc1ccc2[nH]c3c(c2c1)C[C@@]1(O)C2Cc4ccc(O)c5c4[C@@]1(CCN2CC1CC1)C3O5` (stereo partly drawn) [Compound 19, 5′-N′-Cyano-N-[17-(cyclopropylmethyl)-6,7-didehydro4.5α-epoxy-3,14-dihydroxyindolo[2′,3′:6,7]morphinian]-Guanidine]: the Ki at wt κ receptor stood at 0.27 ± 0.01 nM; at κ[E297K] receptor, 2.48 ± 0.82 nM; at μ[K303E] receptor, 0.29 ± 0.05 nM; on wt μ receptor [3], 4.04 ± 1.23 nM. The “Fana = Ki(analog)/Ki(nor-BNI on the wt κ receptor)” value on wt κ receptor (wt κ) was 2.25. Further, the Kb stood at 9.08 nM on δ(OP1) opioid receptor and 3.13 nM in experiment [1]. For the same compound, the “Fmut = mutational factor, Ki(mutant receptor)/Ki(wt κ receptor)” value at κ[E297K] receptor (κ[E297K]) came out at 9.2; at μ[K303E] receptor (μ[K303E]) it was 1.1; with wt μ receptor [2] it was 15. For the same compound, the “kappa opioid receptor selectivity (in words)” value in experiment [1] (in vitro, versus morphine and DADLE antagonism) is given as “demonstrated selectivity”. In the experiment with μ(OP3) opioid receptor, the “Antagonist Potency Ke μ(OP3) Morphine” value is 16.13 nM.

Compound `CN(C)CCCN/C(=N\C#N)Nc1ccc2[nH]c3c(c2c1)C[C@@]1(O)C2Cc4ccc(O)c5c4[C@@]1(CCN2CC1CC1)C3O5` (stereo partly drawn) [Compound 20, 5′-N-Cyano-N′-[3-(dimethylaminopropyl)]-N″-[17-(cyclopropylmethyl)6,7-didehydro4,5α-epoxy-3,14-dihydroxyindolo[2′,3′:6,7]morphinian]-guanidine] gave a Kb in [1] of 0.24 nM. Besides, the “Antagonist Potency Ke μ(OP3) Morphine” value with μ(OP3) opioid receptor is reported as 10.4 nM.

In the case of `N#C/N=C(\NCCN1CCCC1)Nc1ccc2[nH]c3c(c2c1)C[C@@]1(O)C2Cc4ccc(O)c5c4[C@@]1(CCN2CC1CC1)C3O5` (stereo partly drawn) [Compound 21, 5′-N-Cyano-N′-[2-(1-aminoethylpyrrolidine)]-N″-[17-(cyclopropylmethyl)-6,7-didehydro4,5α-epoxy-3,14dihydroxyindolo[2′,3′:6,7]morphinian]-guanidine], the Kb on δ(OP1) opioid receptor came out at 127 nM; in [1], 0.47 nM. In the experiment on μ(OP3) opioid receptor, the “Antagonist Potency Ke μ(OP3) Morphine” value is on record as 5.71 nM.

Turning to `Oc1ccc2c3c1O[C@H]1c4[nH]c5ccccc5c4C[C@@]4(O)[C@@H](C2)N(CC2CC2)CC[C@]314` [Naltrindole (NTI) 1, naltrindole, reference compound], the Kb in experiment [1] (setting [4]) was 45 nM.

For `Oc1ccc2c3c1O[C@H]1c4[nH]c5c(c4C[C@@]4(O)[C@@H](C2)N(CC2CC2)CC[C@]314)C[C@@]1(O)[C@H]2Cc3ccc(O)c4c3[C@@]1(CCN2CC1CC1)[C@H]5O4` [nor-BNI, norbinaltorphimine, reference compound], the Ki on wt κ receptor ([3H]diprenorphine competition, COS-7 whole cell binding, read-out: Ki ± SEM, wt κ) worked out at 0.12 ± 0.04 nM; on κ[E297K] receptor ([3H]diprenorphine competition, COS-7 whole cell binding, read-out: Ki ± SEM, κ[E297K]), 12.5 ± 0.92 nM. Further, the Kb amounted to 0.56 nM in experiment [1] (setting [4]) and 0.2 nM on kappa opioid receptor. In addition, the “Antagonist Potency Ke μ(OP3) Morphine” value with μ(OP3) opioid receptor came to 13.7 nM.
